Measured values from ChEMBL document CHEMBL5053539, “THC shows activity against cultured Plasmodium falciparum” (Bioorg Med Chem Lett, 2021).

Experiments:
Hemozoin = assay: Inhibition of Beta-hematin in Plasmodium falciparum cells assessed as hemozoin formation after 32 hrs by NP40 detergent-mediated assay
Plasmodium falciparum [1] = assay: Antiplasmodial activity against chloroquine-sensitive Plasmodium falciparum NF54; type: functional, organism-based
Plasmodium falciparum [2] = assay: Antiplasmodial activity against multidrug-resistant Plasmodium falciparum K1; type: functional, organism-based

Row | Structure (SMILES) | IC50 (Hemozoin) [µM] | IC50 (Plasmodium falciparum [1]) [nM] | IC50 (Plasmodium falciparum [2]) [nM]
1 | CCN(CC)CCCC(C)Nc1ccnc2cc(Cl)ccc12 (stereo unspecified) [CHLOROQUINE] | 16.8 | – | –
2 | CCCCCc1cc(O)c2c(c1)OC(C)(C)[C@@H]1CCC(C)=C[C@@H]21 [DRONABINOL] | 11.3 | 790 | 720
3 | C=C(C)[C@@H]1CCC(C)=C[C@H]1c1c(O)cc(CCCCC)cc1O [CANNABIDIOL] | 51.1 | 4100 | –
